Assay results reported in BindingDB's records for doi:10.1021/jm058046w (Martin-Luther-University Halle-Wittenberg, 2006).

Test: Cytotoxicity against mouse MDR1 transfected L5178YvMDR cell line

SMILES | IC50 [µM]
CN1C2C3C4N(C)C5C(C1[C@]5(CO)[C@H]3c1ccccc1)[C@@H](c1ccccc1)[C@@]24CO [1,7-dihydroxymethyl-3,9-dimethyl-6,12-diphenyl-3,9-diazahexacyclo[6.4.0.0 2.7.0 4.11.0. 5.10]dodecane] | 7.5
O=C(Oc1ccccc1)N1C2C3C4N(C(=O)Oc5ccccc5)C5C(C1[C@]5(CO)[C@H]3c1ccccc1)[C@@H](c1ccccc1)[C@@]24CO [1,7-dihydroxymethyl-6,12-diphenyl-3,9-diphenoxycarbonyl-3,9-diazahexacyclo[6.4.0.0(2.7)0(4.11)0(5.10)]dodecane] | 21
CC(C)(C)OC(=O)N1C2C3C4N(C(=O)OC(C)(C)C)C5C(C1[C@]5(CO)[C@H]3c1ccccc1)[C@@H](c1ccccc1)[C@@]24CO [3,9-di(tert.)butoxycarbonyl-1,7-dihydroxymethyl-6,12-diphenyl-3,9-diazahexacyclo[6.4.0.0(2.7)0(4.11)0(5.10)]dodecane] | 3.2
OC[C@]12C3C4C1N(Cc1ccccc1)C1C(C(N3Cc3ccccc3)[C@]1(CO)[C@H]4c1ccccc1)[C@H]2c1ccccc1 [3,9-dibenzyl-1,7-dihydroxymethyl-6,12-diphenyl-3,9-diazahexacyclo[6.4.0.0(2.7)0(4.11)0(5.10)]dodecane] | 13.3
